Source: patent publication US12220440B2, “Drug composition, method for treating infection, disinfecting composition, and drug adjuvant” (priority 2022, dated 2025)
Converted amounts (≈) assume the structure as drawn. Read-outs that look alike come from different tables or passages of the source. Peptide text beside a SMILES is read from it.

Columns and labels:
Format in all cases: cell-based
[1] = tested on: E. coli (colistin-resistant); assay: MIC, colistin-resistant E. coli clinical isolates, with and without otilonium bromide; conditions: Escherichia coli
E. coli J53 = assay: Ca2+ / Mg2+ MIC-dependency in cation-supplemented MHB; conditions: 37° C., 16 hours
Protocol: For FIGS. 5c-5d, colistin-susceptible E. coli J53 is treated with colistin and colistin+Ob as indicated in MHB supplemented with different concentrations of Mg^2+ and Ca^2+ ions. The incubation is conducted at 37° C. for 16 hours.
Accordingly, it is believed that the addition of a chelant; or a chelant for divalent ions; or a divalent cation chelant, may further improve the activity of the drug formulation, method of use/treatment, disinfection composition, etc. of the present invention.

[2] = tested on: mcr-1-bearing E. coli J53; assay: SYTOX Green membrane permeability staining; conditions: each drug individually
Description: SYTOX™ Green (available from ThermoFisher Scientific) staining analysis assesses the membrane permeability of colistin-resistant E. coli before and after treatment with the colistin and otilonium bromide combination. SYTOX Green is a green-fluorescent nucleotide dye used to test membrane permeability and membrane integrity. Green fluorescence is detected by fluorescence spectrometer when bacterial cell integrity is destroyed and membrane permeability increases.

CCC(C)CCCC(=O)N[C@@H](CCN)C(=O)N[C@H](C(=O)N[C@@H](CCN)C(=O)N[C@H]1CCNC(=O)[C@H]([C@@H](C)O)NC(=O)[C@H](CCN)NC(=O)[C@H](CCN)NC(=O)[C@H](CC(C)C)NC(=O)[C@@H](CC(C)C)NC(=O)[C@H](CCN)NC1=O)[C@@H](C)O (stereo partly drawn) [Colistin] (HELM PEPTIDE1{[CCC(C)CCCC(=O)[*:2]].[Dab].T.[Dab].[Dab].[Dab].[dL].L.[Dab].[Dab].T}$PEPTIDE1,PEPTIDE1,5:R3-11:R2$$$V2.0)
MIC ([1]; E. coli 2016.2.5 1149-1, colistin-resistant, colistin alone, read-out: Colistin MIC, Colistin): 8 µg/mL (≈ 6.92 µM) | MIC ([1]; E. coli 2016.2.5 1149-1, colistin-resistant, in the presence of 10 ug/ml Ob, read-out: Colistin MIC, Colistin + 10 ug/ml Ob): 4 µg/mL | MIC ([1]; E. coli 2016.2.5 1149-1, colistin-resistant, in the presence of 20 ug/ml Ob, read-out: Colistin MIC, Colistin + 20 ug/ml Ob): 1 µg/mL | MIC ([1]; E. coli 34650, colistin-resistant, colistin alone, read-out: Colistin MIC, Colistin): 8 µg/mL (≈ 6.92 µM) | MIC ([1]; E. coli 34650, colistin-resistant, in the presence of 10 ug/ml Ob, read-out: Colistin MIC, Colistin + 10 ug/ml Ob): 2 µg/mL | MIC ([1]; E. coli 34650, colistin-resistant, in the presence of 20 ug/ml Ob, read-out: Colistin MIC, Colistin + 20 ug/ml Ob): 0.5 µg/mL | MIC ([1]; E. coli CX48, colistin-resistant, colistin alone, read-out: Colistin MIC, Colistin): 8 µg/mL (≈ 6.92 µM) | MIC ([1]; E. coli CX48, colistin-resistant, in the presence of 10 ug/ml Ob, read-out: Colistin MIC, Colistin + 10 ug/ml Ob): 4 µg/mL | MIC ([1]; E. coli CX48, colistin-resistant, in the presence of 20 ug/ml Ob, read-out: Colistin MIC, Colistin + 20 ug/ml Ob): 1 µg/mL | MIC ([1]; E. coli CX53, colistin-resistant, colistin alone, read-out: Colistin MIC, Colistin): 8 µg/mL (≈ 6.92 µM) | MIC ([1]; E. coli CX53, colistin-resistant, in the presence of 10 ug/ml Ob, read-out: Colistin MIC, Colistin + 10 ug/ml Ob): 4 µg/mL | MIC ([1]; E. coli CX53, colistin-resistant, in the presence of 20 ug/ml Ob, read-out: Colistin MIC, Colistin + 20 ug/ml Ob): 2 µg/mL | MIC ([1]; E. coli CX116, colistin-resistant, colistin alone, read-out: Colistin MIC, Colistin): 2 µg/mL (≈ 1.73 µM) | MIC ([1]; E. coli CX116, colistin-resistant, in the presence of 10 ug/ml Ob, read-out: Colistin MIC, Colistin + 10 ug/ml Ob): ≤ 0.25 µg/mL | MIC ([1]; E. coli CX116, colistin-resistant, in the presence of 20 ug/ml Ob, read-out: Colistin MIC, Colistin + 20 ug/ml Ob): ≤ 0.25 µg/mL | MIC ([1]; E. coli WZ2431, colistin-resistant, colistin alone, read-out: Colistin MIC, Colistin): 8 µg/mL (≈ 6.92 µM) | MIC ([1]; E. coli WZ2431, colistin-resistant, in the presence of 10 ug/ml Ob, read-out: Colistin MIC, Colistin + 10 ug/ml Ob): 2 µg/mL | MIC ([1]; E. coli WZ2431, colistin-resistant, in the presence of 20 ug/ml Ob, read-out: Colistin MIC, Colistin + 20 ug/ml Ob): 0.5 µg/mL | MIC ([1]; E. coli WZ2909, colistin-resistant, colistin alone, read-out: Colistin MIC, Colistin): 16 µg/mL (≈ 13.8 µM) | MIC ([1]; E. coli WZ2909, colistin-resistant, in the presence of 10 ug/ml Ob, read-out: Colistin MIC, Colistin + 10 ug/ml Ob): 8 µg/mL | MIC ([1]; E. coli WZ2909, colistin-resistant, in the presence of 20 ug/ml Ob, read-out: Colistin MIC, Colistin + 20 ug/ml Ob): 1 µg/mL | MIC ([1]; E. coli WZ3903, colistin-resistant, colistin alone, read-out: Colistin MIC, Colistin): 4 µg/mL (≈ 3.46 µM) | MIC ([1]; E. coli WZ3903, colistin-resistant, in the presence of 10 ug/ml Ob, read-out: Colistin MIC, Colistin + 10 ug/ml Ob): ≤ 0.25 µg/mL | MIC ([1]; E. coli WZ3903, colistin-resistant, in the presence of 20 ug/ml Ob, read-out: Colistin MIC, Colistin + 20 ug/ml Ob): ≤ 0.25 µg/mL | MIC ([1]; E. coli WZ3906, colistin-resistant, colistin alone, read-out: Colistin MIC, Colistin): 8 µg/mL (≈ 6.92 µM) | MIC ([1]; E. coli WZ3906, colistin-resistant, in the presence of 10 ug/ml Ob, read-out: Colistin MIC, Colistin + 10 ug/ml Ob): 4 µg/mL | MIC ([1]; E. coli WZ3906, colistin-resistant, in the presence of 20 ug/ml Ob, read-out: Colistin MIC, Colistin + 20 ug/ml Ob): 1 µg/mL | MIC ([1]; E. coli WZ3920, colistin-resistant, colistin alone, read-out: Colistin MIC, Colistin): 4 µg/mL (≈ 3.46 µM) | MIC ([1]; E. coli WZ3920, colistin-resistant, in the presence of 10 ug/ml Ob, read-out: Colistin MIC, Colistin + 10 ug/ml Ob): 2 µg/mL | MIC ([1]; E. coli WZ3920, colistin-resistant, in the presence of 20 ug/ml Ob, read-out: Colistin MIC, Colistin + 20 ug/ml Ob): ≤ 0.25 µg/mL | MIC ([1]; E. coli WZ3951, colistin-resistant, colistin alone, read-out: Colistin MIC, Colistin): 16 µg/mL (≈ 13.8 µM) | MIC ([1]; E. coli WZ3951, colistin-resistant, in the presence of 10 ug/ml Ob, read-out: Colistin MIC, Colistin + 10 ug/ml Ob): 8 µg/mL | MIC ([1]; E. coli WZ3951, colistin-resistant, in the presence of 20 ug/ml Ob, read-out: Colistin MIC, Colistin + 20 ug/ml Ob): 2 µg/mL | MIC ([1]; E. coli WZ3955, colistin-resistant, colistin alone, read-out: Colistin MIC, Colistin): 8 µg/mL (≈ 6.92 µM) | MIC ([1]; E. coli WZ3955, colistin-resistant, in the presence of 10 ug/ml Ob, read-out: Colistin MIC, Colistin + 10 ug/ml Ob): 4 µg/mL | MIC ([1]; E. coli WZ3955, colistin-resistant, in the presence of 20 ug/ml Ob, read-out: Colistin MIC, Colistin + 20 ug/ml Ob): 1 µg/mL | MIC ([1]; E. coli X2169, colistin-resistant, colistin alone, read-out: Colistin MIC, Colistin): 16 µg/mL (≈ 13.8 µM) | MIC ([1]; E. coli X2169, colistin-resistant, in the presence of 10 ug/ml Ob, read-out: Colistin MIC, Colistin + 10 ug/ml Ob): 4 µg/mL | MIC ([1]; E. coli X2169, colistin-resistant, in the presence of 20 ug/ml Ob, read-out: Colistin MIC, Colistin + 20 ug/ml Ob): 2 µg/mL | effect of supplemented Ca2+ and Mg2+ on MIC (E. coli J53): increase the MIC | SYTOX Green fluorescence (membrane permeability) [2]: significant increase in fluorescence
